From patent US12559506B2, “Indazole based compounds and associated methods of use” (Arvinas Operations, Inc., priority 2021, dated 2026)
Like-named read-outs stand apart in the source and are kept apart here.

Target: T1, LRRK2 (endogenous, HiBit tagged) (Homo sapiens, UniProt Q5S007)
T1 construct: endogenous in cells; host or cells: HEK293 cells with HiBit knock-in at the endogenous LRRK2 locus, stably expressing firefly luciferase
Assay: Endogenous LRRK2 degradation assay, endogenous gene C-terminally HiBit-tagged in HEK293 cells (Nano-Glo Dual Luciferase)
Format: cell-based
Conditions: endogenous HiBit-tagged LRRK2 in HEK293 cells, 24 hours treatment
In short: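 LRRK2-HiBit quantified via Nano-Glo Dual Luciferase in HEK293 knock-in cells co-expressing firefly luciferase, after 24 h exposure to compound (1 μM final top, 1:3, 11 points). Values normalised to DMSO median per plate and curve-fitted; Alamar Blue viability run alongside.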

[1] = read-out: **Endogenous WT Dmax (%)

T1 sequence (Q5S007 whole entry): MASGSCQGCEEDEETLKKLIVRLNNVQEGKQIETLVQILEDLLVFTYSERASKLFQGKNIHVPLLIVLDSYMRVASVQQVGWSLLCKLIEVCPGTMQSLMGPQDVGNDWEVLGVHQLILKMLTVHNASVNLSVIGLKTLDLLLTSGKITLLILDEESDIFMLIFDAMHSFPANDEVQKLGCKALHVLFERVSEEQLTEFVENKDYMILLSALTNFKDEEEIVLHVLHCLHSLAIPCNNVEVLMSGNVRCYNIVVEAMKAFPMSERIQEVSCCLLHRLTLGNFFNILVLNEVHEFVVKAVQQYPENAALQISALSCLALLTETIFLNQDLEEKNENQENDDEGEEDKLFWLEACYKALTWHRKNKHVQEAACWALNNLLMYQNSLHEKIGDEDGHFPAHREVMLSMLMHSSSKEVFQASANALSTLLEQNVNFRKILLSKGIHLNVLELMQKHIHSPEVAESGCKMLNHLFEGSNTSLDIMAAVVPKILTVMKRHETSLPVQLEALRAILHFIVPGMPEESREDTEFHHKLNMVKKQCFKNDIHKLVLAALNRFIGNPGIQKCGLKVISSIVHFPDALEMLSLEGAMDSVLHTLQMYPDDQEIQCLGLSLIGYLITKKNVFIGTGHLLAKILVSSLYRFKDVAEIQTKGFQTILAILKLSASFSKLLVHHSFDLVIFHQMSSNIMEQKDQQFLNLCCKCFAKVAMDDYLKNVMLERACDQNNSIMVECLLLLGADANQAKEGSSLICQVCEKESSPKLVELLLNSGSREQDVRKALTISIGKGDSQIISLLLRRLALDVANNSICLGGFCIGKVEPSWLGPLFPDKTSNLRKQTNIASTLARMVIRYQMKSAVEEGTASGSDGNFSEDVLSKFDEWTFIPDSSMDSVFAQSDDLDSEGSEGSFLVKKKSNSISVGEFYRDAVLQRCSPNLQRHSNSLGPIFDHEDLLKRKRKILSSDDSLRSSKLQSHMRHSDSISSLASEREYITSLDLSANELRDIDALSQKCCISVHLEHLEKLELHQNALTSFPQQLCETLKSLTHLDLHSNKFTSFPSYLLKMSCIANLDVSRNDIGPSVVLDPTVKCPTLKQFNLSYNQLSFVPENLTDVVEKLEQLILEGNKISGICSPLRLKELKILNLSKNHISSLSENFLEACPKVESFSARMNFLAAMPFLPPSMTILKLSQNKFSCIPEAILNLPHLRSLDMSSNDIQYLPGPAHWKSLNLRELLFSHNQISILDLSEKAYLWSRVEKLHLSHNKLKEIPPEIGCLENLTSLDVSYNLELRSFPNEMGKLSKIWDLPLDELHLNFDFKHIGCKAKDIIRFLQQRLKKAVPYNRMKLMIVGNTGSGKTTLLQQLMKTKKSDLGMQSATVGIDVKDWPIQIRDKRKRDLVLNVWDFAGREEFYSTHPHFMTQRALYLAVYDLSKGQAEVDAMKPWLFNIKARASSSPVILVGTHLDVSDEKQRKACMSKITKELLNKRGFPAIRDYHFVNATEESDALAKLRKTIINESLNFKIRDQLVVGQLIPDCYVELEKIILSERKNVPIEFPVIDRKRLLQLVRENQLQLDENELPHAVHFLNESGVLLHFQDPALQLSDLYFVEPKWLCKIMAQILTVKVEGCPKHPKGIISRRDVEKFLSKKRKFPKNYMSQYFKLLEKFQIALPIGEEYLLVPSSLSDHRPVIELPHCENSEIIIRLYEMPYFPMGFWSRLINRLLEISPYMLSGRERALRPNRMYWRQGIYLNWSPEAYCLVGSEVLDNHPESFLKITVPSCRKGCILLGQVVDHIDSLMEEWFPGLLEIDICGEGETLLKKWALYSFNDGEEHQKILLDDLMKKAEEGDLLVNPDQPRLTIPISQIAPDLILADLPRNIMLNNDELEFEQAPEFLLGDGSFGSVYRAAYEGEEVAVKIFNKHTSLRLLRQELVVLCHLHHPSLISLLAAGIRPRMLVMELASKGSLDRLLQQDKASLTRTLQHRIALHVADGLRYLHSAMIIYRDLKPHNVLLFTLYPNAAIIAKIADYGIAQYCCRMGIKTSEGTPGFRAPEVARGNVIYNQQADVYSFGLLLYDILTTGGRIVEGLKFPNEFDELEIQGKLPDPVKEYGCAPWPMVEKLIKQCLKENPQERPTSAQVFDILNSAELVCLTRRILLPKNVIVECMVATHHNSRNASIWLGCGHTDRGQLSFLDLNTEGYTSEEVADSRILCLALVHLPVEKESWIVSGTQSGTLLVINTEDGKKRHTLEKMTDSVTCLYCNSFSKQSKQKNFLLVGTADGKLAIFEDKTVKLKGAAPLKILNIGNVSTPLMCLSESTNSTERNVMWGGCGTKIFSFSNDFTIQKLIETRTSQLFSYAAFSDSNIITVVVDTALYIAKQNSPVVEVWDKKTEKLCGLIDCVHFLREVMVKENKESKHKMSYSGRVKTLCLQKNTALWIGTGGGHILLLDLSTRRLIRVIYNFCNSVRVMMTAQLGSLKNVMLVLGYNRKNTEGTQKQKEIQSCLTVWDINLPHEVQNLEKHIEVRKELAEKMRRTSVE

| Structure (SMILES) | Dmax [1] [%] | DC50 (read-out: *Endogenous WT DC50) [nM] | DC50 (read-out: Endogenous WT DC50) [nM] | Dmax (read-out: Endogenous WT Dmax) [%] |
| --- | --- | --- | --- | --- |
| CC1(Oc2ccc3[nH]nc(-c4cc(N5CCC(CN6CCC7(CN(c8ccc9c(c8F)CN(C8CCC(=O)NC8=O)C9=O)C7)C(F)(F)C6)CC5)ncn4)c3c2)CC1 (centres unmarked) [Compound 350, 3-(5-{5,5-difluoro-7-[(1-{6-[5-(1-methylcyclopropoxy)-1H-indazol-3-yl]pyrimidin-4-yl}piperidin-4-yl)methyl]-2,7-diazaspiro[3.5]nonan-2-yl}-4-fluoro-1-oxo-2,3-dihydro-1H-isoindol-2-yl)piperidine-2,6-dione] | 50 to 70 | < 10 |  |  |
| CC1(Oc2cc3c(-c4cc(N5CCC(O[C@H]6CC[C@H](OC7CCN(c8ccc9c(c8F)CN(C8CCC(=O)NC8=O)C9=O)CC7)CC6)CC5)ncn4)n[nH]c3cc2F)CC1 (some centres unmarked) [Compound 227, 3-[4-fluoro-1-oxo-5-(4-{[(1r,4r)-4-[(1-{6-[6-fluoro-5-(1-methylcyclopropoxy)-1H-indazol-3-yl]pyrimidin-4-yl}piperidin-4-yl)oxy]cyclohexyl]oxy}piperidin-1-yl)-2,3-dihydro-1H-isoindol-2-yl]piperidine-2,6-dione] |  |  | < 10 | 50 to 70 |
| CC1(Oc2ccc3n[nH]c(-c4cc(N5CCN(C[C@H]6CC[C@H](OC7CCN(c8cc9c(cc8F)C(=O)N(C8CCC(=O)NC8=O)C9)CC7)CC6)CC5)ncn4)c3c2)CC1 (some centres unmarked) [Compound 235, 3-[6-fluoro-5-[4-[4-[[4-[6-[5-(1-methylcyclopropoxy)-2H-indazol-3-yl]pyrimidin-4-yl]piperazin-1-yl]methyl]cyclohexoxy]-1-piperidyl]-1-oxo-isoindolin-2-yl]piperidine-2,6-dione] |  |  | < 10 | 50 to 70 |
| COc1c(N2CCC(O[C@H]3CC[C@H](CN4CCN(c5cc(-c6n[nH]c7cnc(OC8(C)CC8)cc67)ncn5)CC4)CC3)CC2)ccc2c1CN(C1CCC(=O)NC1=O)C2=O (some centres unmarked) [Compound 273, 3-[4-methoxy-1-oxo-5-(4-{[(1r,4r)-4-[(4-{6-[5-(1-methylcyclopropoxy)-1H-pyrazolo[3,4-c]pyridin-3-yl]pyrimidin-4-yl}piperazin-1-yl)methyl]cyclohexyl]oxy}piperidin-1-yl)-2,3-dihydro-1H-isoindol-2-yl]piperidine-2,6-dione] | < 50 | < 10 |  |  |
| CC1(Oc2ccc3n[nH]c(-c4cc(N5CCC(CN6CCN(CC7CCN(c8ccc(F)c9c8CN(C8CCC(=O)NC8=O)C9=O)CC7)CC6)CC5)ncn4)c3c2)CC1 (centres unmarked) [Compound 214, 3-[7-fluoro-4-[4-[[4-[[1-[6-[5-(1-methylcyclopropoxy)-2H-indazol-3-yl]pyrimidin-4-yl]-4-piperidyl]methyl]piperazin-1-yl]methyl]-1-piperidyl]-1-oxo-isoindolin-2-yl]piperidine-2,6-dione] |  |  | < 10 | ≥ 70 |
| Cc1cc(-c2n[nH]c3ccc(OC4(C)CC4)nc23)cc(N2CCC(O[C@H]3CC[C@H](CN4CCN(c5ccc6c(c5F)CN(C5CCC(=O)NC5=O)C6=O)CC4)CC3)CC2)n1 (some centres unmarked) [Compound 371, 3-[4-fluoro-1-oxo-5-(4-{[(1r,4r)-4-[(1-{6-methyl-4-[5-(1-methylcyclopropoxy)-1H-pyrazolo[4,3-b]pyridin-3-yl]pyridin-2-yl}piperidin-4-yl)oxy]cyclohexyl]methyl}piperazin-1-yl)-2,3-dihydro-1H-isoindol-2-yl]piperidine-2,6-dione] |  |  | < 10 | 50 to 70 |
| COc1c(N2CCC(CN3CCN(CC4CCN(c5cc(-c6n[nH]c7cc(F)c(OC8(C)CC8)cc67)ncn5)CC4)C(C)(C)C3)CC2)ccc2c1CN(C1CCC(=O)NC1=O)C2=O (centres unmarked) [Compound 359, 3-{5-[4-({4-[(1-{6-[6-fluoro-5-(1-methylcyclopropoxy)-1H-indazol-3-yl]pyrimidin-4-yl}piperidin-4-yl)methyl]-3,3-dimethylpiperazin-1-yl}methyl)piperidin-1-yl]-4-methoxy-1-oxo-2,3-dihydro-1H-isoindol-2-yl}piperidine-2,6-dione] |  |  | < 10 | 50 to 70 |
| CC1(Oc2cc3c(-c4cc(N5CCC(O[C@H]6CC[C@H](OC7CCN(c8ccc9c(c8F)CN(C8CCC(=O)NC8=O)C9=O)CC7)CC6)CC5)ncn4)n[nH]c3cn2)CC1 (some centres unmarked) [Compound 210, 3-[4-fluoro-5-[4-[4-[[1-[6-[5-(1-methylcyclopropoxy)-1H-pyrazolo[3,4-c]pyridin-3-yl]pyrimidin-4-yl]-4-piperidyl]oxy]cyclohexoxy]-1-piperidyl]-1-oxo-isoindolin-2-yl]piperidine-2,6-dione] |  |  | < 10 | ≥ 70 |
| COc1c(N2CCN(C[C@H]3CC[C@H](OC4CCN(c5cc(-c6n[nH]c7ccc(OC8(C)CC8)cc67)ncn5)CC4)CC3)C(C)(C)C2)ccc2c1CN(C1CCC(=O)NC1=O)C2=O (some centres unmarked) [Compound 364, 3-[5-(3,3-dimethyl-4-{[(1r,4r)-4-[(1-{6-[5-(1-methylcyclopropoxy)-1H-indazol-3-yl]pyrimidin-4-yl}piperidin-4-yl)oxy]cyclohexyl]methyl}piperazin-1-yl)-4-methoxy-1-oxo-2,3-dihydro-1H-isoindol-2-yl]piperidine-2,6-dione] |  |  | < 10 | 50 to 70 |

The remaining lines, values ahead:

| Dmax [1] [%] | DC50 (read-out: *Endogenous WT DC50) [nM] | DC50 (read-out: Endogenous WT DC50) [nM] | Dmax (read-out: Endogenous WT Dmax) [%] | Structure (SMILES) |
| --- | --- | --- | --- | --- |
| 50 to 70 | < 10 |  |  | COc1c(N2CCC(CN3C[C@@H](C)N(CC4CCN(c5cc(-c6n[nH]c7ccc(OC8(C)CC8)cc67)ncn5)CC4)[C@@H](C)C3)CC2)ccc2c1CN(C1CCC(=O)NC1=O)C2=O (stereo partly drawn) [Compound 287, 3-[5-(4-{[(3R,5S)-3,5-dimethyl-4-[(1-{6-[5-(1-methylcyclopropoxy)-1H-indazol-3-yl]pyrimidin-4-yl}piperidin-4-yl)methyl]piperazin-1-yl]methyl}piperidin-1-yl)-4-methoxy-1-oxo-2,3-dihydro-1H-isoindol-2-yl]piperidine-2,6-dione] |
| 50 to 70 | < 10 |  |  | C[C@H]1CN(C[C@H]2CC[C@H](OC3CCN(c4cc(-c5n[nH]c6ccc(OC7(C)CC7)cc56)ncn4)CC3)CC2)CCN1c1ccc2c(c1F)CN(C1CCC(=O)NC1=O)C2=O (stereo partly drawn) [Compound 353, 3-{4-fluoro-5-[(2S)-2-methyl-4-{[(1r,4r)-4-[(1-{6-[5-(1-methylcyclopropoxy)-1H-indazol-3-yl]pyrimidin-4-yl}piperidin-4-yl)oxy]cyclohexyl]methyl}piperazin-1-yl]-1-oxo-2,3-dihydro-1H-isoindol-2-yl}piperidine-2,6-dione] |
|  |  | < 10 | ≥ 70 | C[C@H]1CN(CC2CCN(c3cc(-c4n[nH]c5ccc(OC6(C)CC6)cc45)ncn3)CC2)CCN1CC1CCN(c2ccc3c(c2F)CN(C2CCC(=O)NC2=O)C3=O)CC1 (stereo partly drawn) [Compound 222, 3-[4-fluoro-5-(4-{[(2S)-2-methyl-4-[(1-{6-[5-(1-methylcyclopropoxy)-1H-indazol-3-yl]pyrimidin-4-yl}piperidin-4-yl)methyl]piperazin-1-yl]methyl}piperidin-1-yl)-1-oxo-2,3-dihydro-1H-isoindol-2-yl]piperidine-2,6-dione] |
|  |  | 50 to 100 | < 50 | CC1(Oc2ccc3[nH]nc(-c4cc(N5CCN(C[C@H]6CC[C@H](OC7CCN(c8ccc9c(c8F)CN(C8CCC(=O)NC8=O)C9=O)CC7)CC6)CC5(C)C)ncn4)c3c2)CC1 (some centres unmarked) [Compound 383, 3-(5-(4-(((1r,4r)-4-((3,3-dimethyl-4-(6-(5-(1-methylcyclopropoxy)-1H-indazol-3-yl)pyrimidin-4-yl)piperazin-1-yl)methyl)cyclohexyl)oxy)piperidin-1-yl)-4-fluoro-1-oxoisoindolin-2-yl)piperidine-2,6-dione] |
